Results on 4 molecules are retold here after ChEMBL document CHEMBL1122054, “Lysosomotropic agents. 4. Carbobenzoxyglycylphenylalanyl, a new protease-sensitive masking group for introduction into cells” (J Med Chem, 1982).

Common to all, as to assay type: functional
Assay [1] is filed under the species Mus musculus. The experiment in a line: Cytotoxicity was determined against mouse peritoneal macrophages (MPM) and the percent of LDH released after 24 hr was determined as a measure of cell death at a concentration of 0.375 mM (expt I). (In general: LDH leaks from cells whose membrane has failed.)
Assay [2] is filed under the species Mus musculus. The experiment in a line: Cytotoxicity was determined for the compound against mouse peritoneal macrophages (MPM) at a concentration of 0.541 mM.
For assay [3], the species on record is Mus musculus. The experiment in a line: Toxicity toward P-815 Mastocytoma cells after 5 hr was determined as percent of [51Cr]- release from labeled cells as a measure of cell death. at a concentration of 0.257 mM. (expt III).
For assay [4], the species on record is Mus musculus. Description: Cytotoxicity was determined for the compound against mouse peritoneal macrophages (MPM) at a concentration of 0.514 mM.
For assay [5], the species on record is Mus musculus. The experiment in a line: Toxicity was evaluated for the compound at a concentration of 0.257 mM against […] Mastocytoma.
Assay [6] is filed under the species Mus musculus. The experiment in a line: Cytotoxicity was determined against mouse peritoneal macrophages (MPM) and the percent of LDH released after 24 hr was determined as a measure of cell death at a concentration of 0.375 mM (expt II).
For assay [7], the species on record is Mus musculus. Description: Toxicity toward P-815 Mastocytoma cells after 5 hr was determined as percent of [51Cr]- release from labeled cells as a measure of cell death. at a concentration of 0.282 mM. (expt IV).
The species entered for assay [8] is Mus musculus. The experiment in a line: Toxicity toward P-815 Mastocytoma cells after 5 hr was determined as percent of [51Cr]- release from labeled cells as a measure of cell death. at a concentration of 0.208 mM. (expt III).
The species entered for assay [9] is Mus musculus. Description: Toxicity was evaluated for the compound at a concentration of 0.208 mM against […] Mastocytoma.
Assay [10] is filed under the species Mus musculus. The experiment in a line: Toxicity toward P-815 Mastocytoma cells after 5 hr was determined as percent of [51Cr]- release from labeled cells as a measure of cell death. at a concentration of 0.282 mM. (expt III).

For the molecule `CCCCCCCCCCCCNC(=O)[C@@H](Cc1ccccc1)NC(=O)CN`, the LDH release worked out at 85% in the assay listed under Mus musculus [1] and 78% in the assay listed under Mus musculus [6]. The figures for the Toxicity in the assay listed under Mus musculus [2], in the assay listed under Mus musculus [4] and in the assay listed under Mus musculus [5] were 210 µg/mL, 200 µg/mL and 100 µg/mL, respectively. This molecule also returned a Cr release in the assay filed under Mus musculus [3] of 95%.

The molecule `NC(=O)[C@@H](Cc1ccccc1)NC(=O)CNC(=O)OCc1ccccc1` came in with a Cr release in the assay listed under Mus musculus [7] of 17%.

`O=C(CNC(=O)OCc1ccccc1)N[C@@H](Cc1ccccc1)C(=O)N(CCCl)CCCl` showed a Cr release in the assay listed under Mus musculus [8] of 16%. Besides, the Toxicity in the assay listed under Mus musculus [9] was 100 µg/mL.

Regarding `NC(=O)[C@H](Cc1ccccc1)NC(=O)CNC(=O)OCc1ccccc1`, the Cr release in the assay filed under Mus musculus [10] was found to be 17%.
